In one assay the target is T1, PAX3/FKHR (Homo sapiens, UniProt P23760+Q12778).
T1 construct: FKHR (FOXO1, Q12778) C-terminal portion as fusion partner; endogenous in cells
Nature of the assay: expression of PAX3/FKHR specific target gene CB1. As to conditions: upon treatment. In kind it is cell-based.

The test system of a further assay is aRMS. Put plainly: mouse xenograft tumor model. As to conditions: in vivo. An excerpt: (§1) Recently, we have established a gene signature characteristic for the Pediatric sarcoma alveolar rhabdomyosarcoma (aRMS), which expresses the chimaeric fusion protein PAX3/FKHR due to a chromosomal translocation event t(2; 13). Based on this signature, a number of potential therapeutic target molecules have been selected for further study, such as FGFR2. […] Furthermore, tumor growth could also be inhibited in vivo using a mouse xenograft tumor model.

Assay [1] has as its system aRMS cells. Nature of the assay: apoptosis / caspase 3 activity in aRMS cells. In kind it is cell-based. As to conditions: aRMS cells in vitro.
Excerpt: as §1

Assay [2] deals with aRMS cells. Put plainly: cell growth of aRMS cells in vitro. In kind it is cell-based.
Excerpt: as §1

Consider one compound from patent publication US7973032B2, “Staurosporine derivatives for use in alveolar rhabdomyosarcoma” (University of Zurich, priority 2005, dated 2011).

T1 sequence (P23760+Q12778 fused): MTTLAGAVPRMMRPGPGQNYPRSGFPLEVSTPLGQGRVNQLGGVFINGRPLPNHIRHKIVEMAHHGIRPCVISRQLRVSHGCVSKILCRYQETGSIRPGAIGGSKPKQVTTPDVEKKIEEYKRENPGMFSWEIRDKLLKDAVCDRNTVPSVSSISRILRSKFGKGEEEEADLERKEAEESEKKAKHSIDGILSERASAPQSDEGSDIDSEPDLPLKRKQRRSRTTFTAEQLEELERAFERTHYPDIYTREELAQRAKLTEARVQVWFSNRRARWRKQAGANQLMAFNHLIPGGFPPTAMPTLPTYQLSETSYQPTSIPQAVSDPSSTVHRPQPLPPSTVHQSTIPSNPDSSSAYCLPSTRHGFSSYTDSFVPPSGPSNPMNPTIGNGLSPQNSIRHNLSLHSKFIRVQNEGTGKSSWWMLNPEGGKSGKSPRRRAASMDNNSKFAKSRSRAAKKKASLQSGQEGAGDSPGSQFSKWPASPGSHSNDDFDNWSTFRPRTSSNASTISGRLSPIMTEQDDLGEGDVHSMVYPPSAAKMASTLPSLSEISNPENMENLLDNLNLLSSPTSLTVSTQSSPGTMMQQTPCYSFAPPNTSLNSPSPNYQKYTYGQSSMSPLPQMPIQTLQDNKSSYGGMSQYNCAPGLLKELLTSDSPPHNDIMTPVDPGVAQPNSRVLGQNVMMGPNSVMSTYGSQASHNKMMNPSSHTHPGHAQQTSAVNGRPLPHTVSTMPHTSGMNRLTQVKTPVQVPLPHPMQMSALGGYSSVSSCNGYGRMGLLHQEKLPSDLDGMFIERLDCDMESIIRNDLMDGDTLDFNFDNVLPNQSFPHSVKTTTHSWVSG

As to `CO[C@@H]1[C@H](N(C)C(=O)c2ccccc2)C[C@H]2O[C@]1(C)n1c3ccccc3c3c4c(c5c6ccccc6n2c5c31)C(=O)NC4` [PKC412, N-[(9S,10R,11R,13R)-2,3,10,11,12,13-hexahydro-10-methoxy-9-methyl-1-oxo-9,13-epoxy-1H,9H-diindolo[1,2,3-gh:3′,2′,1′-Im]pyrrolo[3,4-j][1,7]benzodiazonin-11-yl]-N-methylbenzamide], the CB1 expression entry at PAX3/FKHR is “completely abolished”. Further, the tumor growth entry in the assay with aRMS is listed as “inhibited”. In addition, in the assay on aRMS cells [1], the apoptosis result was “induce apoptosis” and the “caspase 3 activity” value is reported as “enhanced caspase 3 activity”. Also, the “cell growth of aRMS cells” value with aRMS cells [2] is recorded as “efficiently inhibit cell growth”.
